{"source": "paper PMC12832182", "about": "(Science (New York, N.Y.), 2025)", "molecular_target": "T1, non-Cathepsin L-processed, but self-cleaved enzyme (LyLAP) (Homo sapiens, UniProt Q6P4A8)", "T1 sequence (Q6P4A8 39-227)": "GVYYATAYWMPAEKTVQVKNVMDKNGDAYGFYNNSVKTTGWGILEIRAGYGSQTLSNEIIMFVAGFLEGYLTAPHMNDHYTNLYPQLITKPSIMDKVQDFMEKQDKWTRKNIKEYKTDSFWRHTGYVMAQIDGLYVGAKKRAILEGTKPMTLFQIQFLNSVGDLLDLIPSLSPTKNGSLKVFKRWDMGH", "T1 sequence (Q6P4A8 228-553)": "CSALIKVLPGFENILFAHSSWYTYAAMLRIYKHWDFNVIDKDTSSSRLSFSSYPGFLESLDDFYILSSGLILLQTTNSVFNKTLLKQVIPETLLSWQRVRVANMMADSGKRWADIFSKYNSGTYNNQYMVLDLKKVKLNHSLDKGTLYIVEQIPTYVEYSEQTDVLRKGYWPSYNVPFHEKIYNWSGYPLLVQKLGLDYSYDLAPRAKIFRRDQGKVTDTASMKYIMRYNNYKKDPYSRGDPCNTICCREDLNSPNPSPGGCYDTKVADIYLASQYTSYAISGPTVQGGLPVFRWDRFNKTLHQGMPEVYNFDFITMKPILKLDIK", "assay": "fluorogenic AMC release", "assay_type": "biochemical", "conditions": "lysosomal pH buffer pH 4.5, 37°C; without cathepsin L preactivation", "data": [{"smiles": "Cc1cc(=O)oc2cc(NC(=O)[C@@H](N)CC(C)C)ccc12", "note": "[Leu-AMC, L-Leucine-7-amido-4-methylcoumarin]", "values": [{"measurement": "fluorogenic AMC release", "value": "increased catalysis toward single amino acid substrates and, more substantially, toward tripeptide substrates"}]}]}
